Laboratory results: ChEMBL document CHEMBL4602638, “Propargylglycine-based antimicrobial compounds are targets of TolC-dependent efflux systems in Escherichia coli” (Bioorg Med Chem Lett, 2020)
In brackets after ≈: the same amount, converted by molar mass. Blank lines part the entries; values can stand above or below the compound they belong to. Activity calls are given as the source filed them. No cut-off for these calls is given here.

Columns and labels:
[1] = Lipophilicity, logP of compound; assay type: physicochemical; conditions: octanol/water
[2] = target: T1, UDP-3-O-acyl-N-acetylglucosamine deacetylase (Pseudomonas aeruginosa (strain ATCC 15692 / PAO1 / 1C / PRS 101 / LMG12228)) (UniProt P47205); assay: Inhibition of LpxC in Pseudomonas aeruginosa assessed as reduction in bacterial growth measured after 20 hrs by CLSI protocol based microbroth dilution method
T1 sequence (whole entry): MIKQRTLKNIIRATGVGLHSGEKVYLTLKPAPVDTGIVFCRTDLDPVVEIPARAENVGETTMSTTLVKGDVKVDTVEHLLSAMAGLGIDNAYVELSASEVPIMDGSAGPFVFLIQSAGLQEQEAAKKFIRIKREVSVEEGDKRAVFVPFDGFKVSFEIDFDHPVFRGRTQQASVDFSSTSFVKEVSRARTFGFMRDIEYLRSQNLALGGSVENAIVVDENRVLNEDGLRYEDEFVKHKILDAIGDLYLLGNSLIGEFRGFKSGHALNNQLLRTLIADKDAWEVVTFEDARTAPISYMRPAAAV

[3] = target: T2, UDP-3-O-acyl-N-acetylglucosamine deacetylase (Escherichia coli K-12) (UniProt P0A725); assay: Inhibition of LpxC in Escherichia coli assessed as reduction in bacterial growth measured after 20 hrs by CLSI protocol based microbroth dilution method
T2 sequence (whole entry): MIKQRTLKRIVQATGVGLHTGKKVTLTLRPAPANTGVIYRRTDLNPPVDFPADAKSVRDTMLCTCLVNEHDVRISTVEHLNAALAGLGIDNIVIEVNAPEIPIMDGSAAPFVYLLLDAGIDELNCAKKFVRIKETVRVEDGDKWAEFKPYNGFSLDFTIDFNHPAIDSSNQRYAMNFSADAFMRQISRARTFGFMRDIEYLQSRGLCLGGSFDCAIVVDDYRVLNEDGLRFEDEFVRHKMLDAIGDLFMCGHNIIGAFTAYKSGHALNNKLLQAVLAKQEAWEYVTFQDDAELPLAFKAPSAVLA

[4] = target: T2, UDP-3-O-acyl-N-acetylglucosamine deacetylase (Escherichia coli K-12); assay: Inhibition of LpxC in Escherichia coli expressing deltaCdelta4LFhuA assessed as reduction in bacterial growth measured after 20 hrs by CLSI protocol based microbroth dilution method
[5] = target: T2, UDP-3-O-acyl-N-acetylglucosamine deacetylase (Escherichia coli K-12); assay: Inhibition of LpxC in Escherichia coli harboring deltaACRB mutant assessed as reduction in bacterial growth measured after 20 hrs by CLSI protocol based microbroth dilution method
[6] = target: T2, UDP-3-O-acyl-N-acetylglucosamine deacetylase (Escherichia coli K-12); assay: Inhibition of LpxC in Escherichia coli harboring deltaTolC mutant assessed as reduction in bacterial growth measured after 20 hrs by CLSI protocol based microbroth dilution method
[7] = target: T1, UDP-3-O-acyl-N-acetylglucosamine deacetylase (Pseudomonas aeruginosa (strain ATCC 15692 / PAO1 / 1C / PRS 101 / LMG12228)); assay: Inhibition of LpxC in Pseudomonas aeruginosa assessed as delay in bacterial growth at 25 to 50 ug/ml measured after 20 hrs by CLSI protocol based microbroth dilution method
[8] = target: T2, UDP-3-O-acyl-N-acetylglucosamine deacetylase (Escherichia coli K-12); assay: Inhibition of LpxC in Escherichia coli assessed as reduction in bacterial growth at 160 ug/ml measured after 20 hrs by CLSI protocol based microbroth dilution method
[9] = target: T2, UDP-3-O-acyl-N-acetylglucosamine deacetylase (Escherichia coli K-12); assay: Inhibition of LpxC in Escherichia coli assessed as reduction in bacterial growth at 80 ug/ml measured after 20 hrs by CLSI protocol based microbroth dilution method
[10] = target: T2, UDP-3-O-acyl-N-acetylglucosamine deacetylase (Escherichia coli K-12); assay: Inhibition of LpxC in Escherichia coli expressing deltaCdelta4LFhuA and harboring deltaACRB mutant assessed as reduction in bacterial growth measured after 20 hrs by CLSI protocol based microbroth dilution method
[11] = target: T2, UDP-3-O-acyl-N-acetylglucosamine deacetylase (Escherichia coli K-12); assay: Inhibition of LpxC in Escherichia coli expressing deltaCdelta4LFhuA assessed as reduction in bacterial growth at 80 ug/ml measured after 20 hrs by CLSI protocol based microbroth dilution method
[12] = target: T2, UDP-3-O-acyl-N-acetylglucosamine deacetylase (Escherichia coli K-12); assay: Inhibition of LpxC in Escherichia coli expressing deltaCdelta4LFhuA and harboring deltaTolC mutant assessed as reduction in bacterial growth measured after 20 hrs by CLSI protocol based microbroth dilution method

Compound: C#CC[C@H](NC(=O)c1ccc(OCC#CC)cc1)C(=O)NO
- logP [1]: 1.29
- MIC [2]: 100 µg/mL (≈ 333 µM)
- MIC [3]: > 160 µg/mL
- inhibition [3]: Dose-dependent effect
- MIC [4]: 100 µg/mL (≈ 333 µM)
- MIC [5]: 80 µg/mL (≈ 266 µM)
- MIC [6]: 80 µg/mL (≈ 266 µM)
- inhibition [7]: Active
- inhibition [8]: inactive

Compound: C#CC[C@H](NC(=O)c1ccc(-c2ccccc2)cc1)C(=O)NO
- logP [1]: 2.28
- MIC [5]: 32 µg/mL (≈ 104 µM)
- inhibition [5]: Dose-dependent effect
- MIC [6]: 16 µg/mL (≈ 51.9 µM)
- inhibition [9]: inactive
- inhibition [10]: Active
- inhibition [11]: inactive
- inhibition [12]: Active

Compound: CC#CCOc1ccc(C(=O)N[C@H](C(=O)NO)C(C)(C)N)cc1
- logP [1]: 0.44

Second part, the compound after the results:

- logP [1]: -0.01
Compound: O=C(N[C@@H](Cc1cn(C[C@H]2O[C@@H](n3ccc(=O)[nH]c3=O)[C@H](O)[C@@H]2O)nn1)C(=O)NO)c1ccc(-c2ccccc2)cc1

- logP [1]: -3.52
Compound: N[C@@H](Cc1cn(C[C@H]2O[C@@H](n3ccc(=O)[nH]c3=O)[C@H](O)[C@@H]2O)nn1)C(=O)NO

- logP [1]: -1.69
Compound: CC#CCOc1ccc(C(=O)N[C@@H](Cc2cn(C[C@H]3O[C@@H](n4ccc(=O)[nH]c4=O)[C@H](O)[C@@H]3O)nn2)C(=O)NO)cc1

- logP [1]: 0.61
Compound: C#CC[C@H](NC(=O)c1ccccc1)C(=O)NO
